From ChEMBL document CHEMBL1121874, “Importance of the aromatic ring in adrenergic amines. 5. Nonaromatic analogues of phenylethanolamine as inhibitors of phenylethanolamine N-methyltransferase: role of hydrophobic and steric interactions” (J Med Chem, 1981) come the findings set out here.

In general, IC50 refers to the concentration needed to halve the response being measured. Lower therefore signals inhibition by little substance. The term Km denotes the substrate concentration at which the rate is half of its maximum.

The chains are these.
B1: Phenylethanolamine N-methyltransferase (Bos taurus), P10938 (protein)
chain: MSGTDRSQAAGAVPDSDPGLAAVSSAYQRFEPRAYLRNNYAPPRGDLSCPDGVGPWKLRCLAQTFATGEVSGRTLIDIGSGPTIYQLLSACAHFEDITMTDFLEVNRQELRLWLREEPGAFDWSVYSQHVCLIEGKGESWQEKECQLRARVKRILPIDVHRPQPLGAGGLAPLPADALVSAFCLEAVSPDLASFQRALDHITTLLRPGGHLLLIGALEESWYLAGEARLAVVPVREEEVREALVRTATRCGICARTPMPAHLQTGVDDVKGIFFTRAQKKVGV

In the first data set the target is T1, Phenylethanolamine N-methyltransferase (Bos taurus, UniProt P10938).
T1 sequence (P10938 whole entry): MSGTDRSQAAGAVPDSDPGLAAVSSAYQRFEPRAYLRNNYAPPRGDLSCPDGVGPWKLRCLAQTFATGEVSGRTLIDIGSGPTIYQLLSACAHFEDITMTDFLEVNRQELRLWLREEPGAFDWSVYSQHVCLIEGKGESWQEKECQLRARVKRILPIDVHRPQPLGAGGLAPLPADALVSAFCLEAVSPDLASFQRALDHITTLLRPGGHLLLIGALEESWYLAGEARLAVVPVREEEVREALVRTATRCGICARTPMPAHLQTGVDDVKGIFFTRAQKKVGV
Description: (§1) Inhibitory activity against phenylethanolamine N-methyl-transferase.
`C[Si](C)(C)OC(C#N)C1CCC1` (stereo unspecified): the IC50 was > 1000 µM.

`C[Si](C)(C)OC(C#N)C12CC3CC(CC(C3)C1)C2` (stereo unspecified) gave an IC50 of 195 µM.

`C[Si](C)(C)OC(C#N)C1CCCC1` (stereo unspecified) yielded an IC50 of 446 µM.

`CCCCCC(C)(C#N)O[Si](C)(C)C` (stereo unspecified) yielded an IC50 of 669 µM.

`NCC(O)/C1=C/CC/C=C\CC1` (stereo unspecified) gave an IC50 of 89 µM.

As for `O=CC1CCC1` [CYCLOBUTANE CARBALDEHYDE], the IC50 is > 1000 µM.

Turning to `O=CC1CCCCCCCCCC1` [CYCLOUNDECANE CARBALDEHYDE], half-maximal inhibition (IC50) was put at 9 µM.

Consider `NCC(O)C1CCCCCCC1` (stereo unspecified), for which the IC50 is 7 µM.

In turn, `CCCCCCCC(O)CN` (stereo unspecified) showed an IC50 of 216 µM.

For the molecule `NCC(O)C1CCCCC1` (stereo unspecified), the IC50 was found to be 14 µM.

`C[Si](C)(C)OC(C#N)C1CCCCCCCC1` (stereo unspecified) had an IC50 of 6 µM.

Consider `C[Si](C)(C)OC1(C#N)CCCCCCC1`, for which the IC50 stood at 72 µM.

As to `O=C1CCCC1` [CYCLOPENTANONE], the IC50 was > 1000 µM.

Molecule `NCC1(O)CCCCCC1` had an IC50 of 510 µM.

Regarding `O=C1CCCCC1` [CYCLOHEXANONE], the IC50 was > 1000 µM.

Take `CCC(C)C(C)C=O` (stereo unspecified): the midpoint of inhibition, the IC50, lay at 403 µM.

As to `CCCCCC(C)(O)CN` (stereo unspecified), the IC50 was found to be 669 µM.

In the case of `O=CC1CCCCCC1` [CYCLOHEPTANE CARBALDEHYDE], the IC50 amounted to 8 µM.

`NCC(O)C1=C/C=C\C=C/C=C\1` (stereo unspecified): inhibition was half-maximal at 760 µM (IC50).

`NCC(O)C12CC3CC(CC(C3)C1)C2` (stereo unspecified) had an IC50 of 195 µM.

Consider `NCC(O)C1CCC1` (stereo unspecified), for which the IC50 is > 1000 µM.

In turn, `C[Si](C)(C)OC(C#N)C1CCCCCCCCCC1` (stereo unspecified) gave an IC50 of 9 µM.

Consider `O=CC1CCCCCCCC1` [CYCLONONANECARBALDEHYDE], for which the IC50 amounted to 6 µM.

Turning to `CCCCCC(C#N)O[Si](C)(C)C` (stereo unspecified), the IC50 was found to be 314 µM.

Take `CC(C)CC=O`: the IC50 is 1000 µM.

Take `CCC(CC)C(C#N)O[Si](C)(C)C` (stereo unspecified): inhibition was half-maximal at 545 µM (IC50).

`CCCCC(O)CN` (stereo unspecified) came in with an IC50 of 345 µM.

Molecule `NCC(O)/C1=C/CCCCCC1` (stereo unspecified) came in with a concentration for half-maximal inhibition (IC50) of 38 µM.

For `CCC(C=O)CC`, the IC50 was determined as 545 µM.

In turn, `CCCCCCC(O)CN` (stereo unspecified) returned an IC50 of 109 µM.

`O=C1CCCCCCC1` [CYCLOOCTANONE]: the IC50 was determined as 72 µM.

Molecule `CCCCCC(O)CN` (stereo unspecified) displayed an IC50 of 314 µM.

`CCCCCCC(C#N)O[Si](C)(C)C` (stereo unspecified) displayed an IC50 of 109 µM.

Regarding `NCC1(O)CCCCC1`, the IC50 was > 1000 µM.

In the case of `NCC(O)C1=C/CCCC/C=C\1` (stereo unspecified), the IC50 was 57 µM.

For the molecule `CC(C)CC(O)CN` (stereo unspecified), inhibition was half-maximal at 1000 µM (IC50).

Regarding `O=C1CCCCCCCC1` [CYCLONONANONE], the IC50 was found to be 17 µM.

Take `CC(C)CC(C#N)O[Si](C)(C)C` (stereo unspecified): the IC50 was 1000 µM.

Regarding `CCCCCC(C)=O`, the concentration for half-maximal inhibition (IC50) came to 669 µM.

In the case of `CCCCC=O` [PENTANAL], the 50% inhibitory concentration (IC50) came to 345 µM.

Molecule `CCCCCCCC=O` [OCTANAL] had an IC50 of 216 µM.

As for `NCC(O)C1CCCCCCCCCC1` (stereo unspecified), the IC50 turned out to be 9 µM.

Consider `CCCCCCC(C)=O`, for which 664 µM corresponded to half-maximal inhibition (IC50).

Regarding `CCC(CC)C(O)CN` (stereo unspecified), the IC50 was 545 µM.

Molecule `C[Si](C)(C)OC(C#N)C1CCCCCC1` (stereo unspecified) had an IC50 of 8 µM.

In the case of `NCC1(O)CCCCCCCCCC1`, 8 µM corresponded to half-maximal inhibition (IC50).

Molecule `CCCCC(C#N)O[Si](C)(C)C` (stereo unspecified) registered an IC50 of 345 µM.

In the case of `NCC(O)C1CC=CCC1` (stereo unspecified), the IC50 came out at 52 µM.

On to `NCC(O)C1CCCC1` (stereo unspecified), for which half-maximal inhibition (IC50) was put at 446 µM.

In the case of `CCCCCCCC(C#N)O[Si](C)(C)C` (stereo unspecified), inhibition was half-maximal at 216 µM (IC50).

Molecule `C[Si](C)(C)OC1(C#N)CCCCCCCC1` gave an IC50 of 17 µM.

On to `NCC1(O)CCCCCCC1`, for which inhibition was half-maximal at 72 µM (IC50).

In turn, `CCCCCCC=O` [HEPTANAL] returned an IC50 of 109 µM.

The molecule `CCCCCCC(C)(C#N)O[Si](C)(C)C` (stereo unspecified) came in with an IC50 of 664 µM.

Turning to `C[Si](C)(C)OC1(C#N)CCCCC1`, the IC50 was > 1000 µM.

Molecule `CCC(C)C(C)C(C#N)O[Si](C)(C)C` (stereo unspecified) displayed an IC50 of 403 µM.

In turn, `CCC(C)C(C)C(O)CN` (stereo unspecified) came in with an IC50 of 403 µM.

With `CCCCCCC(C)(O)CN` (stereo unspecified), half-maximal inhibition (IC50) was put at 664 µM.

Turning to `C[Si](C)(C)OC1(C#N)CCCC1`, the IC50 is > 1000 µM.

Take `C[Si](C)(C)OC1(C#N)CCCCCC1`: 510 µM corresponded to half-maximal inhibition (IC50).

In turn, `CCCCCC=O` [HEXANAL] registered an IC50 of 314 µM.

As for `O=CC12CC3CC(CC(C3)C1)C2`, inhibition was half-maximal at 195 µM (IC50).

Molecule `NCC1(O)CCCCCCCC1` displayed an IC50 of 17 µM.

As for `O=CC1CCCC1` [CYCLOPENTANECARBALDEHYDE], the IC50 was found to be 446 µM.

The molecule `O=C1CCCCCC1` [CYCLOHEPTANONE] registered an IC50 of 510 µM.

Take `NCC1(O)CCCC1`: the IC50 was > 1000 µM.

As for `NCC(O)C1CCCCCC1` (stereo unspecified), inhibition was half-maximal at 8 µM (IC50).

Take `NCC(O)C1CCCCCCCC1` (stereo unspecified): the IC50 was 6 µM.

Substrate in a further data set: NCC(O)/C1=C/CC/C=C\CC1
The data set can be described thus: (§2) Substrate activity against phenylethanolamine N-methyl-transferase was tested.
As for B1, the Km came to 155 µM.

Substrate in another data set: NCC(O)/C1=C/CCCCCC1
The description is as §2.
For the molecule B1, the Km was 110 µM.

Substrate in the next data set: NCC(O)C1=C/C=C\C=C/C=C\1
The description is as §2.
For the molecule B1, the Km came to 430 µM.

Substrate in the next data set: NCC(O)C1=C/CCCC/C=C\1
The data set is described as §2.
For B1, the Km worked out at 128 µM.

Substrate in a further data set: NCC(O)C1CC=CCC1
Described as §2.
Turning to B1, the Km came out at 57 µM.

Substrate in another data set: NCC(O)C1CCCCC1
Described as §2.
Take B1: the Km is 40 µM.

Substrate in the next data set: NCC(O)C1CCCCCCC1
The data set is described as §2.
Turning to B1, the Km came out at 26 µM.

Compound in another data set: NC[C@@H](O)c1ccccc1
The description is as §1.
With B1, the Km amounted to 136 µM.
